The results in this text go back to US10590086B2, “Pharmaceutical compound” (IOmet Pharma Ltd., priority 2014, dated 2020).

A value given as a limit tells only on which side of the number the result lay.

The target in assay [1] is TDO (Homo sapiens, UniProt P48775). The assay can be described thus: A172 kynurenine cell-based assay. Set-up: This assay utilised cancer cells which expressed either TDO or IDO; endogenous in cells; host or cells: A172 (human glioblastoma). Particulars: A172 human glioblastoma cells, 48 hours, 500 μM L-tryptophan; read-out: A172 Kynurenine cell based assay pIC50 (converted). How it is done: (§1) Exemplary compounds of the invention were prepared, and tested to determine their effect as TDO and/or IDO inhibitors. Two different assays were employed: 1. a cell-based assay for detecting the effect of test compounds on kynurenine production in two different cancer cell types. This assay utilised cancer cells which expressed either TDO or IDO and as such was used as a means of testing compound activity at these two enzymes in a cell-based context. 2. a TDO and IDO biochemical coupled assay which utilised recombinantly produced and purified TDO and IDO enzymes in combination with the enzyme formamidase. This coupled enzyme system allowed conversion of N-formylkynurenine produced by TDO or IDO activity to kynurenine which was then quantified by fluorescence following addition of Erhlich's Reagent The protocols for these are set out below.
(§2) Cell Based Assay for Detection of Kynurenine Produced by TDO and/or IDO
(§3) A172 (human glioblastoma) and SKOV3 (human ovarian adenocarcinoma) cells were seeded in a 96 well plate at 30,000 or 40,000 cells per well respectively in phenol red-free RPMI supplemented with 10% FCS, 2 mM L-glutamine and 500 μM L-tryptophan. IDO expression was induced in the SKOV3 cells by the addition of 500 ng/ml IFN-γ. Cells were incubated at 37° C. with or without the addition of test compound. After 48 hours, the cells were removed by centrifugation and Erhlich's reagent was added to the supernatant. The Erhlich's reagent was incubated for 5 minutes before the absorbance was read at 490 nm.

Assay [2] has as its target IDO (Homo sapiens, UniProt P14902). The assay can be described thus: SKOV3 kynurenine cell-based assay (IDO induced by IFN-γ). Also noted: IDO expression was induced in the SKOV3 cells by the addition of 500 ng/ml IFN-γ; endogenous in cells; host or cells: SKOV3 (human ovarian adenocarcinoma), induced with IFN-γ. Particulars: SKOV3 human ovarian adenocarcinoma cells, 500 ng/ml IFN-γ, 48 hours, 500 μM L-tryptophan; read-out: SKOV3 Kynurenine cell based assay pIC50 (converted). As for the experimental part: as §1, §2, §3

TDO, sequence (P48775 whole entry): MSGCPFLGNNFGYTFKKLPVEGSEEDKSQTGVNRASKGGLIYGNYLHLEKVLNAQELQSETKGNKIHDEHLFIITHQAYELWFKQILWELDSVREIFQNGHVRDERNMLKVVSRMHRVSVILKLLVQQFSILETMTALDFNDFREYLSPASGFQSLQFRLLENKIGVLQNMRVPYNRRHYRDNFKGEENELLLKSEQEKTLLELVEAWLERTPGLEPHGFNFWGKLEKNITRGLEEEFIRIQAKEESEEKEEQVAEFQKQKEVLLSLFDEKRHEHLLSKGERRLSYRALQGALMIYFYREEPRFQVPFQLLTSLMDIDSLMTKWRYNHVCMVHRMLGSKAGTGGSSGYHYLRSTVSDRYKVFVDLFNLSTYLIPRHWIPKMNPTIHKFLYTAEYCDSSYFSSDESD
IDO, sequence (P14902 whole entry): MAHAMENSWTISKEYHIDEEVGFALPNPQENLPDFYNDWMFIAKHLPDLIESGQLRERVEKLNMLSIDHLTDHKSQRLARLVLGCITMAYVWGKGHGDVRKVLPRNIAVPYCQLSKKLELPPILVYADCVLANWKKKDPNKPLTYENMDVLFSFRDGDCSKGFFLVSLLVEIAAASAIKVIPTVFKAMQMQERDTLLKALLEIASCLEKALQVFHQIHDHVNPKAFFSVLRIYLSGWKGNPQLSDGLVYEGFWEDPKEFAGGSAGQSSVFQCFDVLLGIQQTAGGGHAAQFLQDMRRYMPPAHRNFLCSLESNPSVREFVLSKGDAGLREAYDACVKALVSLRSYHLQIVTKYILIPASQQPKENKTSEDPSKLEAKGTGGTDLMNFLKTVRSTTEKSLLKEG

As for `COCC(=O)N1CCN(c2cc(Cl)cc3[nH]ncc23)CC1` [Compound 112], the values for the IC50 in assay [1] and in assay [2] were less than 3.16 µM and 3.24 to 31.6 µM, respectively.
The like results for `CS(=O)(=O)N1CC2CC1CN2c1cc(Cl)cc2[nH]ncc12` (stereo not drawn) [Compound 202] were, in that order, less than 3.16 µM and 32.4 to 100 µM.
On to `CS(=O)(=O)N1CCCN(c2cccc3[nH]ncc23)CC1` [Compound 60], for which the IC50 in assay [1] was 3.24 to 31.6 µM; in assay [2], greater than 100 µM.
Taken in the same sequence, the figures for `CCc1cc(N2CCN(S(C)(=O)=O)CC2)c2cn[nH]c2c1` [Compound 158] were 3.24 to 31.6 µM and 3.24 to 31.6 µM.
The like results for `CN(C)S(=O)(=O)N1CCN(c2cc(Cl)cc3[nH]ncc23)CC1` [Compound 119] were, in that order, less than 3.16 µM and 3.24 to 31.6 µM.
The like results for `CNC(=O)CN1CCN(c2cc(Cl)cc3[nH]ncc23)CC1` [Compound 59] were, in that order, less than 3.16 µM and 3.24 to 31.6 µM.
For the molecule `CC(=O)N1CCN(c2cc(C(F)(F)F)cc3[nH]ncc23)CC1` [Compound 48], the IC50 in assay [1] is less than 3.16 µM; in assay [2], 3.24 to 31.6 µM.
As for `CC(=O)N1CCN(c2cc(Cl)cc3[nH]ncc23)CC1C` (stereo not drawn) [Compound 74], the figures for the IC50 in assay [1] and in assay [2] were less than 3.16 µM and 3.24 to 31.6 µM, respectively.
Taken in the same sequence, the figures for `NS(=O)(=O)N1CCC(c2cc(Cl)cc3[nH]ncc23)CC1` [Compound 174] were less than 3.16 µM and 3.24 to 31.6 µM.
The like results for `CS(=O)(=O)N1CCC(Nc2cccc3[nH]ncc23)CC1` [Compound 75] were, in that order, 32.4 to 100 µM and greater than 100 µM.
The like results for `CC(=O)N1CCC(Oc2cc(Cl)cc3[nH]ncc23)CC1` [Compound 160] were, in that order, less than 3.16 µM and 3.24 to 31.6 µM.
As to `CC(=O)N1CCN(c2cc(C(C)C)cc3[nH]ncc23)CC1(C)C` [Compound 147], the IC50 in assay [1] and in assay [2] was 3.24 to 31.6 µM in each case.
In the case of `Cc1n[nH]c2cc(Cl)cc(N3CCN(S(C)(=O)=O)CC3)c12` [Compound 66], the IC50 in assay [1] and in assay [2] was 3.24 to 31.6 µM each time.
Consider `O=C(N1CCC(c2cc(Cl)cc3[nH]ncc23)CC1)C1(O)CC1` [Compound 195], for which the IC50 was less than 3.16 µM in assay [1] and 3.24 to 31.6 µM in assay [2].
Regarding `CC(=O)N1CC=C(c2cc(Br)cc3[nH]ncc23)CC1` [Compound 128], the IC50 in assay [1] was less than 3.16 µM; in assay [2], 3.24 to 31.6 µM.
The like results for `CC(=O)N1CCC(c2cc(C3CC3)cc3[nH]ncc23)CC1` [Compound 86] were, in that order, 3.24 to 31.6 µM and 3.24 to 31.6 µM.
Taken in the same sequence, the figures for `NC(=O)N1CCN(c2cc(Cl)cc3[nH]ncc23)CC1` [Compound 110] were less than 3.16 µM and 3.24 to 31.6 µM.
Take `OCCOc1cc(Cl)cc2[nH]ncc12` [Compound 85]: the IC50 in assay [1] is 3.24 to 31.6 µM; in assay [2], 32.4 to 100 µM.
Taken in the same sequence, the figures for `COCCS(=O)(=O)N1CCN(c2cc(Cl)cc3[nH]ncc23)CC1` [Compound 64] were less than 3.16 µM and 3.24 to 31.6 µM.
The like results for `NS(=O)(=O)N1CCN(c2cc(Cl)cc3[nH]ncc23)CC1` [Compound 81] were, in that order, less than 3.16 µM and 3.24 to 31.6 µM.
Taken in the same sequence, the figures for `CS(=O)(=O)N1CCN(c2cc(C(F)(F)F)cc3[nH]ncc23)CC1` [Compound 49] were less than 3.16 µM and 3.24 to 31.6 µM.
For `O=C(C1COC1)N1CCC(c2cc(Cl)cc3[nH]ncc23)CC1` [Compound 205], the IC50 in assay [1] was less than 3.16 µM; in assay [2], greater than 100 µM.
The like results for `CCC(=O)N1CCN(c2cc(Cl)cc3[nH]ncc23)CC1` [Compound 109] were, in that order, less than 3.16 µM and 3.24 to 31.6 µM.
Take `CN(C)S(=O)(=O)N1CCC(c2cc(Cl)cc3[nH]ncc23)CC1` [Compound 173]: the IC50 in assay [1] is less than 3.16 µM; in assay [2], 3.24 to 31.6 µM.
The like results for `Clc1cc(N2CCN(c3ccccc3)CC2)c2cn[nH]c2c1` [Compound 92] were, in that order, less than 3.16 µM and 3.24 to 31.6 µM.
The like results for `CC(O)C(=O)N1CCN(c2cc(Cl)cc3[nH]ncc23)CC1` (stereo not drawn) [Compound 136] were, in that order, less than 3.16 µM and 3.24 to 31.6 µM.
Taken in the same sequence, the figures for `O=S(=O)(C1CCCC1)N1CCC(c2cc(Cl)cc3[nH]ncc23)CC1` [Compound 143] were less than 3.16 µM and 3.24 to 31.6 µM.
Take `C[C@@H]1CN(S(C)(=O)=O)CCN1c1cc(C(F)(F)F)cc2[nH]ncc12` [Compound 208]: the results for the IC50 in assay [1] and in assay [2] were less than 3.16 µM and 3.24 to 31.6 µM, respectively.
The like results for `CCCS(=O)(=O)N1CCC(c2cc(Cl)cc3[nH]ncc23)CC1` [Compound 140] were, in that order, less than 3.16 µM and 3.24 to 31.6 µM.
With `CN1CC2CN(c3cccc4[nH]ncc34)CCN2C1=O` (stereo not drawn) [Compound 47], the IC50 in assay [1] is 3.24 to 31.6 µM; in assay [2] it was greater than 100 µM.
The like results for `CN(C)C(=O)N1CCN(c2cc(Cl)cc3[nH]ncc23)CC1` [Compound 82] were, in that order, less than 3.16 µM and 3.24 to 31.6 µM.
Taken in the same sequence, the figures for `CC(=O)N1CCC(c2cc(C(F)(F)F)cc3[nH]ncc23)CC1(C)C` (stereo not drawn) [Compound 133] were less than 3.16 µM and less than 3.16 µM.
With `CC(=O)N1CCN(c2cc(C(C)C)cc3[nH]ncc23)CC1` [Compound 68], the figures for the IC50 in assay [1] and in assay [2] were 3.24 to 31.6 µM and greater than 100 µM, respectively.
Regarding `CC(=O)N1CCN(c2cc(C(F)(F)F)cc3[nH]ncc23)CC1(C)C` [Compound 79], the IC50 in assay [1] and in assay [2] was less than 3.16 µM in each case.
Take `CC(=O)N1CCCN(c2cc(Cl)cc3[nH]ncc23)CC1` [Compound 71]: the IC50 is less than 3.16 µM in assay [1] and 3.24 to 31.6 µM in assay [2].
The like results for `O=S(=O)(C1CC1)N1CCN(c2cc(Cl)cc3[nH]ncc23)CC1` [Compound 54] were, in that order, less than 3.16 µM and 3.24 to 31.6 µM.
Taken in the same sequence, the figures for `CCC1CN(c2cc(Cl)cc3[nH]ncc23)CCN1C(C)=O` (stereo not drawn) [Compound 84] were less than 3.16 µM and 3.24 to 31.6 µM.
Taken in the same sequence, the figures for `CC(=O)N1CCN(c2cc(C3CC3)cc3[nH]ncc23)CC1` [Compound 121] were 3.24 to 31.6 µM and greater than 100 µM.
For the molecule `CC(=O)N1CCN(c2cc(Cl)cc3[nH]ncc23)CC12CCC2` [Compound 182], the IC50 in assay [1] was less than 3.16 µM; in assay [2], 3.24 to 31.6 µM.
Taken in the same sequence, the figures for `CC(=O)N1CCN(c2cc(C3CCCC3)cc3[nH]ncc23)CC1` [Compound 139] were 32.4 to 100 µM and greater than 100 µM.
Taken in the same sequence, the figures for `O=S(=O)(c1ccccc1)N1CCC(c2cc(Cl)cc3[nH]ncc23)CC1` [Compound 138] were less than 3.16 µM and 3.24 to 31.6 µM.
The like results for `CS(=O)(=O)NC1CCN(c2cc(Cl)cc3[nH]ncc23)C1` (stereo not drawn) [Compound 193] were, in that order, less than 3.16 µM and 3.24 to 31.6 µM.
As for `CC(=O)N1CCN(c2cc(Cl)cc3[nH]ncc23)CC1(C)C` [Compound 46], the IC50 in assay [1] and in assay [2] was less than 3.16 µM in each case.
Turning to `CCC(=O)N1CCC(c2cc(Cl)cc3[nH]ncc23)CC1` [Compound 170], the IC50 in assay [1] is less than 3.16 µM; in assay [2], 3.24 to 31.6 µM.
On to `CCCS(=O)(=O)N1CCN(c2cccc3[nH]ncc23)CC1` [Compound 16], for which the IC50 in assay [1] was 3.24 to 31.6 µM; in assay [2], 32.4 to 100 µM.
Taken in the same sequence, the figures for `CC(=O)N1CCN(c2cc(Cl)cc3[nH]ncc23)CC12CC2` [Compound 93] were less than 3.16 µM and 3.24 to 31.6 µM.
Taken in the same sequence, the figures for `Cc1cc(N2CCN(S(C)(=O)=O)CC2)c2cn[nH]c2c1` [Compound 31] were less than 3.16 µM and 32.4 to 100 µM.
For `CCC1CN(c2cc(Cl)cc3[nH]ncc23)CCN1S(C)(=O)=O` (stereo not drawn) [Compound 83], the IC50 was less than 3.16 µM in assay [1] and 3.24 to 31.6 µM in assay [2].
With `CS(=O)(=O)N1CCN(c2ccc3[nH]ncc3c2)CC1` [Compound 43], the IC50 is 3.24 to 31.6 µM in assay [1] and 32.4 to 100 µM in assay [2].
Taken in the same sequence, the figures for `O=S(=O)(C1CC1)N1CCC(c2cc(Cl)cc3[nH]ncc23)CC1` [Compound 188] were less than 3.16 µM and 3.24 to 31.6 µM.
Taken in the same sequence, the figures for `O=C(C1CC1)N1CCC(c2cc(Cl)cc3[nH]ncc23)CC1` [Compound 165] were less than 3.16 µM and 32.4 to 100 µM.
Taken in the same sequence, the figures for `c1ccc(CCNc2cccc3[nH]ncc23)cc1` [Compound 50] were 32.4 to 100 µM and 32.4 to 100 µM.
With `CS(=O)(=O)N1CCC(c2cc(N3CCOCC3)cc3[nH]ncc23)CC1` [Compound 206], the IC50 in assay [1] is 3.24 to 31.6 µM; in assay [2], greater than 100 µM.
The like results for `CS(=O)(=O)NCC1CCN(c2cc(Cl)cc3[nH]ncc23)CC1` [Compound 98] were, in that order, less than 3.16 µM and 3.24 to 31.6 µM.
